Reference: PMC7470115, “Design, synthesis and biological evaluation of novel tetrahydrothieno [2,3-c]pyridine substitued benzoyl thiourea derivatives as PAK1 inhibitors in triple negative breast cancer” (Journal of Enzyme Inhibition and Medicinal Chemistry, 2020)

Assays:
MDA-MB-231 cells = experiment: Cell viability assay (MTT); type: cell-based; conditions: 50 μM
Protocol: MDA-MB-231 were purchased from American Type Culture Collection (ATCC, Manassas, VA, USA). Cells were cultured in DMEM with 10% foetal bovine serum and incubated with 5% CO2. Antibodies used in this study were as follows: cdc25c (4688, CST), pcdc2^Tyr[15] (4539, CST), cyclinB1 (4135, CST), PAK1 (ab223849, CST), p-PAK1^Ser199 (ab192814, abcam), JNK (9252, CST), p-JNK (9255, CST), c-Jun (9165, CST), p-c-Jun (3270, CST), p-c-Raf^Ser259(9421, CST), p-MEK ^Ser217/221 (9154, CST), p-ERK ^Thr202/Tyr204 (9101, CST), β-actin (3700, CST). MTT (M2128) was purchased from Sigma- Aldrich (St. Louis, MO, USA).
Cells were dispensed in 96-well plates at a density of 5 × 10^4 cells/ml. After 24 h or 48 h incubation, cells were treated with different concentrations of compounds for the indicated time periods. Cell viability was measured by the MTT assay.

PAK1 = PAK1 (Homo sapiens, UniProt Q13153); experiment: PAK1 enzymatic assay (Kinase-Glo Plus / ADP-Glo luminescence); type: biochemical; conditions: for IC50: tested in triplicate, mean ± SD, 50 µM ATP, read-out: Kinase inhibitory activity (IC50, μM) PAK1
Protocol: These assays were carried out as described previously. All of the enzymatic reactions were conducted at 30 °C for 40 min. The 50 µl reaction mixture contains 40 mM Tris, pH 7.4, 10 mM MgCl2, 0.1 mg/ml BSA, 1 mM DTT, 50 µM ATP, 0.2 μg/ml PAK1 and 100 uM lipid substrate. The compounds were diluted in 10% DMSO and 5 µl of the dilution was added to a 50 µl reaction so that the final concentration of DMSO is 1% in all of the reactions. The assay was performed using the Kinase-Glo Plus luminescence kinase assay kit and ADP-Glo Plus luminescence kinase assay kit. It measures kinase activity by quantitating the amount of ATP remaining in solution following a kinase reaction. The luminescent signal from the assay is correlated with the amount of ATP present and is inversely correlated with the amount of kinase activity. The IC50 values were calculated using nonlinear regression with normalised dose − response fit using Prism GraphPad software.

Chain of PAK1 (Q13153 whole entry): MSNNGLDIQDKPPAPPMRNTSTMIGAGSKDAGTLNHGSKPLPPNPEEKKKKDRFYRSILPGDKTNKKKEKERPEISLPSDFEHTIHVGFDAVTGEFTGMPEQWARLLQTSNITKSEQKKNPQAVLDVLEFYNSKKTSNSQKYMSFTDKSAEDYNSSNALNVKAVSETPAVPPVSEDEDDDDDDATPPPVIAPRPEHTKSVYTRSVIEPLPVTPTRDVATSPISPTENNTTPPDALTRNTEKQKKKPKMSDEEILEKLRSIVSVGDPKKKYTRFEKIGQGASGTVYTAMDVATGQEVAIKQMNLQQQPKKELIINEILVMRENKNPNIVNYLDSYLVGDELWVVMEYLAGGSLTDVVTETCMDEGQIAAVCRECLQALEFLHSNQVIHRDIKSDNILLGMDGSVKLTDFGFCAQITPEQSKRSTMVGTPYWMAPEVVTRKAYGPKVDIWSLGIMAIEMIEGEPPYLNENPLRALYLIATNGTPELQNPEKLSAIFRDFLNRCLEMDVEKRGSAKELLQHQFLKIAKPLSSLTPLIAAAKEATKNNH

SMILES	IC50 (PAK1)	further results
CC(C)(C)OC(=O)N1CCc2c(sc(NC(=O)c3ccccc3)c2C(N)=O)C1 [2169–1087]	23.5 µM	Antiproliferatory activity in MDA-MB-231 cells at 50 μM (MDA-MB-231 cells): no antiproliferatory activity; inhibition at 30 µM (PAK1; read-out: PAK1 inhibition rate at 30 μM): 78%
CC(C)(C)OC(=O)N1CCc2c(sc(NC(=S)NC(=O)c3ccc(C(F)(F)F)cc3)c2C(N)=O)C1 [Compound 5n, Tert-butyl-3-carbamoyl-2–(3-(4-(trifluoromethyl)benzoyl)thioureido)-4,7-dihydrothieno[2,3-c]pyridine-6(5H)-carboxylate]	12.1 ± 1.35 µM	–
CC(C)(C)OC(=O)N1CCc2c(sc(NC(=S)NC(=O)c3cccc(Cl)c3Cl)c2C(N)=O)C1 [Compound 5o, Tert-butyl-3-carbamoyl-2–(3-(2,3-dichlorobenzoyl)thioureido)-4,7-dihydrothieno[2,3-c]pyridine-6(5H)-carboxylate]	7.43 ± 0.81 µM	–
CC(C)(C)OC(=O)N1CCc2c(sc(NC(=S)NC(=O)C3CCCCC3)c2C(N)=O)C1 [Compound 5p, Tert-butyl-3-carbamoyl-2–(3-(cyclohexanecarbonyl)thioureido)-4,7-dihydrothieno[2,3-c]pyridine-6(5H)-carboxylate]	19.3 ± 1.85 µM	–
CC(C)(C)OC(=O)N1CCc2c(sc(NC(=S)NC(=O)Cc3cccs3)c2C(N)=O)C1 [Compound 5q, Tert-butyl-3-carbamoyl-2–(3-(2-(thiophen-2-yl)acetyl)thioureido)-4,7-dihydrothieno[2,3-c]pyridine-6(5H)-carboxylate]	15.6 ± 1.64 µM	–
Cc1ccccc1C(=O)N1CCc2c(sc(NC(=S)NC(=O)c3cccc(C(F)(F)F)c3)c2C(N)=O)C1 [Compound 7a, 6–(2-methylbenzoyl)-2–(3-(3-(trifluoromethyl)benzoyl)thioureido)-4,5,6,7-tetrahydrothieno[2,3-c]pyridine-3-carboxamide]	10.2 ± 1.13 µM	–
NC(=O)c1c(NC(=S)NC(=O)c2cccc(C(F)(F)F)c2)sc2c1CCN(C(=O)c1ccc(Cl)cc1)C2 [Compound 7b, 6–(4-chlorobenzoyl)-2–(3-(3-(trifluoromethyl)benzoyl)thioureido)-4,5,6,7-tetrahydrothieno[2,3-c]pyridine-3-carboxamide]	13.2 ± 1.39 µM	–
NC(=O)c1c(NC(=S)NC(=O)c2cccc(C(F)(F)F)c2)sc2c1CCN(C(=O)c1ccccc1Cl)C2 [Compound 7c, 6–(2-chlorobenzoyl)-2–(3-(3-(trifluoromethyl)benzoyl)thioureido)-4,5,6,7-tetrahydrothieno[2,3-c]pyridine-3-carboxamide]	9.37 ± 1.03 µM	melting point: 166 to 169 °C
CC(=O)N1CCc2c(sc(NC(=S)NC(=O)c3cccc(C(F)(F)F)c3)c2C(N)=O)C1 [Compound 7d, 6-acetyl-2–(3-(3-(trifluoromethyl)benzoyl)thioureido)-4,5,6,7-tetrahydrothieno[2,3-c]pyridine-3-carboxamide]	1.15 ± 0.97 µM	melting point: 166 to 169 °C
CC(C)C(=O)N1CCc2c(sc(NC(=S)NC(=O)c3cccc(C(F)(F)F)c3)c2C(N)=O)C1 [Compound 7e, 6-isobutyryl-2–(3-(3-(trifluoromethyl)benzoyl)thioureido)-4,5,6,7-tetrahydrothieno[2,3-c]pyridine-3-carboxamide]	3.08 ± 0.29 µM	–
CC(C)CC(=O)N1CCc2c(sc(NC(=S)NC(=O)c3cccc(C(F)(F)F)c3)c2C(N)=O)C1 [Compound 7f, 6–(3-methylbutanoyl)-2–(3-(3-(trifluoromethyl)benzoyl)thioureido)-4,5,6,7-tetrahydrothieno[2,3-c]pyridine-3-carboxamide]	3.87 ± 0.35 µM	–
NC(=O)c1c(NC(=S)NC(=O)c2cccc(C(F)(F)F)c2)sc2c1CCN(C(=O)CCCl)C2 [Compound 7g, 6–(3-chloropropanoyl)-2–(3-(3-(trifluoromethyl)benzoyl)thioureido)-4,5,6,7-tetrahydrothieno[2,3-c]pyridine-3-carboxamide]	5.75 ± 0.63 µM	–
C/C=C/C(=O)N1CCc2c(sc(NC(=S)NC(=O)c3cccc(C(F)(F)F)c3)c2C(N)=O)C1 [Compound 7h, (E)-6-(but-2-enoyl)-2–(3-(3-(trifluoromethyl)benzoyl)thioureido)-4,5,6,7-tetrahydrothieno[2,3-c]pyridine-3-carboxamide]	4.14 ± 0.51 µM	–
C=C(C)C(=O)N1CCc2c(sc(NC(=S)NC(=O)c3cccc(C(F)(F)F)c3)c2C(N)=O)C1 [Compound 7i, 6-methacryloyl-2–(3-(3-(trifluoromethyl)benzoyl)thioureido)-4,5,6,7-tetrahydrothieno[2,3-c]pyridine-3-carboxamide]	3.42 ± 0.33 µM	–
NC(=O)c1c(NC(=S)NC(=O)c2cccc(C(F)(F)F)c2)sc2c1CCN(C(=O)C1CCC1)C2 [Compound 7k, 6-(cyclobutanecarbonyl)-2–(3-(3-(trifluoromethyl)benzoyl)thioureido)-4,5,6,7-tetrahydrothieno[2,3-c]pyridine-3-carboxamide]	0.68 ± 0.07 µM	–
NC(=O)c1c(NC(=S)NC(=O)c2cccc(C(F)(F)F)c2)sc2c1CCN(C(=O)C1CCCC1)C2 [Compound 7l, 6-(cyclopentanecarbonyl)-2–(3-(3-(trifluoromethyl)benzoyl)thioureido)-4,5,6,7-tetrahydrothieno[2,3-c]pyridine-3-carboxamide]	1.09 ± 0.09 µM	–
NC(=O)c1c(NC(=S)NC(=O)c2cccc(C(F)(F)F)c2)sc2c1CCN(C(=O)C1CCCCC1)C2 [Compound 7m, 6-(cyclohexanecarbonyl)-2–(3-(3-(trifluoromethyl)benzoyl)thioureido)-4,5,6,7-tetrahydrothieno[2,3-c]pyridine-3-carboxamide]	4.55 ± 0.51 µM	–
NC(=O)c1c(NC(=S)NC(=O)c2cccc(C(F)(F)F)c2)sc2c1CCN(C(=O)C1CCOCC1)C2 [Compound 7n, 6-(tetrahydro-2H-pyran-4-carbonyl)-2–(3-(3-(trifluoromethyl)benzoyl)thioureido)-4,5,6,7-tetrahydrothieno[2,3-c]pyridine-3-carboxamide]	4.87 ± 0.65 µM	–
